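Step 1: Grow cells in 96-well plates. Step 2: Expose to compound for 48 hours at 5 concentrations. Step 3: Interpolate endpoints linearly; if unreached, use highest concentration. TGI marks complete inhibition of growth.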 Peptide text beside a SMILES is read from it. * marks the point of attachment. Cbz = O=C(OCc1ccccc1)*
Columns and labels:
Experiment in all cases: NCI-60 cell line screen, 48 h
A549 NSCLC = test system: A549 NSCLC
COLO 205 colon = test system: COLO 205 colon
EKVX NSCLC = test system: EKVX NSCLC
HCT-116 colon = test system: HCT-116 colon
HOP-92 NSCLC = test system: HOP-92 NSCLC
MCF7 breast = test system: MCF7 breast
MOLT-4 leukemia = test system: MOLT-4 leukemia
OVCAR-8 ovarian = test system: OVCAR-8 ovarian
RXF 393 renal = test system: RXF 393 renal
SF-295 CNS = test system: SF-295 CNS
SF-539 CNS = test system: SF-539 CNS
SK-MEL-2 melanoma = test system: SK-MEL-2 melanoma
SN12C renal = test system: SN12C renal
SNB-19 CNS = test system: SNB-19 CNS
T-47D breast = test system: T-47D breast
UACC-62 melanoma = test system: UACC-62 melanoma
SNB-75 CNS = test system: SNB-75 CNS

Row | SMILES | TGI (A549 NSCLC) [µM] | TGI (COLO 205 colon) [µM] | TGI (EKVX NSCLC) [µM] | TGI (HCT-116 colon) [µM] | TGI (HOP-92 NSCLC) [µM] | TGI (MCF7 breast) [µM] | TGI (MOLT-4 leukemia) [µM] | TGI (OVCAR-8 ovarian) [µM] | TGI (RXF 393 renal) [µM] | TGI (SF-295 CNS) [µM] | TGI (SF-539 CNS) [µM] | TGI (SK-MEL-2 melanoma) [µM] | TGI (SN12C renal) [µM] | TGI (SNB-19 CNS) [µM] | TGI (T-47D breast) [µM] | TGI (UACC-62 melanoma) [µM] | TGI (SNB-75 CNS) [µM]
1 | O=C1/C(=C\c2cccc(Oc3ccccc3)c2)SC(c2ccccc2)N1Cc1ccccc1 (centres undefined) | > 100 | 22 | > 100 | 34 | 60 | > 100 | 75.7 | 68.9 | 64 | > 100 | 37.3 | 45.7 | > 100 | 92.8 | 98.3 | > 100 | 
2 | CCC1=NC(N/N=C/c2ccco2)=N/C1=C\c1ccco1 | > 100 | > 100 | > 100 | > 100 | > 100 |  | > 100 | > 100 | > 100 | > 100 |  | > 100 | > 100 | > 100 | > 100 | > 100 | 
3 | OCCCN=C1N=C(Cl)/C(=C\c2ccccc2)N1 | > 100 | > 100 | > 100 | > 100 | > 100 | > 100 | > 100 | > 100 | > 100 | > 100 | > 100 |  | > 100 | > 100 | > 100 |  | > 100
4 | COC(=O)C(Cc1ccccc1)NP(=O)(O)OCC1OC(n2ccc(N)nc2=O)C(O)C1O (centres undefined) | > 100 | > 100 | > 100 | > 100 | > 100 | > 100 | > 100 | > 100 |  | > 100 | > 100 | > 100 | > 100 | > 100 | > 100 | > 100 | > 100
5 | C[C@@H]1C[C@@H]2C(=O)N(c3ccccc3)C(=O)[C@@H]2c2[nH]c3ccc(Br)cc3c21 | 90.1 | > 100 | > 100 | > 100 | 62.2 |  | > 100 | 47.1 | 78.5 | 90.9 | > 100 | > 100 | > 100 | > 100 |  | > 100 | 41.9
6 | CCC12CN(C(=O)OC)C3C(Br)C1CCC(=O)C32 (centres undefined) | > 100 | > 100 | > 100 |  | > 100 | > 100 | > 100 | > 100 | > 100 | > 100 | > 100 | > 100 |  | > 100 | > 100 | > 100 | > 100
7 | CC(=S)NC=C(C(N)=O)C(N)=O | > 100 | > 100 | > 100 | > 100 | > 100 | > 100 | > 100 | > 100 | > 100 | > 100 | > 100 | > 100 | > 100 |  | > 100 | > 100 | > 100
8 | C#C[C@@H](OC(=O)c1ccc([N+](=O)[O-])cc1)[C@@H]1C[C@H]2O[C@@H]([C@H](C/C=C/CC)OC(=O)c3ccc([N+](=O)[O-])cc3)C[C@H]2O1 | > 100 | > 100 | > 100 | > 100 | > 100 |  | > 100 | > 100 | > 100 | > 100 | > 100 | > 100 | > 100 | > 100 | > 100 | > 100 | > 100
9 | O=C(c1ccccc1)N1CCC(Nc2cccnc2)O1 (centres undefined) | > 100 |  | > 100 | > 100 | > 100 | > 100 | > 100 | > 100 | > 100 | > 100 | > 100 | > 100 | > 100 | > 100 | > 100 | > 100 | 
10 | CN(C)c1cccc2c(S(=O)(=O)NCCCNCCN)cccc12 | > 100 | 32.8 | > 100 | > 100 | 80.4 |  | 41.1 |  | 75 | > 100 | 49.7 | 86.7 | > 100 | > 100 | > 100 | > 100 | 68.6
11 | COc1ccc(/C=N/NC(=O)CSc2nc(-c3ccccc3)c(-c3ccccc3)[nH]2)cc1OC | > 100 | 49.2 | 72.5 | 87.2 | 84.6 |  | 37.6 | 36.3 | 52.7 | 55.9 | 45.6 | 39.1 | 94.4 | > 100 |  | 40.5 | 77
12 | CCOC(=O)COc1cc(-c2ccccc2)nc2cc(F)ccc12 | > 100 | > 100 | > 100 | > 100 | > 100 | > 100 | > 100 | > 100 | > 100 | > 100 | > 100 | > 100 | > 100 |  | > 100 | > 100 | > 100
13 | CCOC(=O)CCC(NC(=O)CNC(=O)CNC(=O)C(CCC(=O)OCC)NC(=O)C(CCC(=O)OCC)NC(=O)C(CCC(=O)OCC)NC(=O)OCc1ccccc1)C(=O)NC(CCC(=O)OCC)C(=O)NC(CCC(=O)OCC)C(=O)OCC (centres undefined) (Cbz-E(OEt)E(OEt)E(OEt)GGE(OEt)E(OEt)E(OEt)-OEt; configuration not given here) | > 75 | > 75 | > 75 | > 75 |  | > 75 | > 75 | > 75 | > 75 | > 75 |  | > 75 | > 75 | > 75 |  | > 75 | > 75
14 | Cc1cc(=O)[nH]c(Sc2ccc([N+](=O)[O-])cc2[N+](=O)[O-])n1 | 40.2 | 15.7 | > 57.2 | > 34.6 | 19.2 | 64.2 | > 100 | 30 | 26.1 | > 76.4 |  | 46.4 | 28.3 | > 66.8 | 43 | 41.4 | 39.9

From PubChem BioAssay (NCI)
